Measured values: the supplement of paper PMC4862054

Tests used:
Assay in all cases: normalised response (% of control), CellTiter-Glo; higher = more viable cells (100 = DMSO, 0 = benzethonium chloride kill control)
Details in all cases: incubation time: 72 h
BT-474 = system: BT-474
Method in brief: (§1)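 After 72 h with compound in 384-well plates, breast cancer cell lines seeded as 20 µl suspension were read for CellTox Green fluorescence at 485/520 nm. CellTiter-Glo luminescence was then read after 10 min at room temperature. Compound was present at 5 concentrations in 10-fold steps over a 10,000-fold range set per compound, and plates were normalised to 0.1 % DMSO (100) and a positive kill control (0). Values are normalised signals, each at a single concentration.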

BT-549 = system: BT-549
Method in brief: as §1

CAL-120 = system: CAL-120
Method in brief: as §1

CAL-148 = system: CAL-148
Method in brief: as §1

CAL-51 = system: CAL-51
Method in brief: as §1

CAL-85-1 = system: CAL-85-1
Method in brief: as §1

DU-4475 = system: DU-4475
Method in brief: as §1

HCC1143 = system: HCC1143
Method in brief: as §1

HCC1599 = system: HCC1599
Method in brief: as §1

HCC1937 = system: HCC1937
Method in brief: as §1

HDQ-P1 = system: HDQ-P1
Method in brief: as §1

Hs578T = system: Hs578T
Method in brief: as §1

MCF-10A = system: MCF-10A
Method in brief: as §1

MDA-MB-231 = system: MDA-MB-231
Method in brief: as §1

MDA-MB-436 = system: MDA-MB-436
Method in brief: as §1

MDA-MB-453 = system: MDA-MB-453
Method in brief: as §1

MDA-MB-468 = system: MDA-MB-468
Method in brief: as §1

MFM-223 = system: MFM-223
Method in brief: as §1

SK-BR-3 = system: SK-BR-3
Method in brief: as §1

SMILES	normalised response (BT-474)	normalised response (BT-549)	normalised response (CAL-120)	normalised response (CAL-148)	normalised response (CAL-51)	normalised response (CAL-85-1)	normalised response (DU-4475)	normalised response (HCC1143)	normalised response (HCC1599)	normalised response (HCC1937)	normalised response (HDQ-P1)	normalised response (Hs578T)	normalised response (MCF-10A)	normalised response (MDA-MB-231)	normalised response (MDA-MB-436)	normalised response (MDA-MB-453)	normalised response (MDA-MB-468)	normalised response (MFM-223)	normalised response (SK-BR-3)
CCc1cncnc1N1CCN(Cc2nc3ccc(C(F)(F)F)cc3[nH]2)CC1 (1 nM)	107%	108%	101%	106%	125%	97.3%	103%	99.5%	114%	95.5%	105%	101%	106%	105%	107%	115%	109%	103%	110%
CCc1cncnc1N1CCN(Cc2nc3ccc(C(F)(F)F)cc3[nH]2)CC1 (10 nM)	108%	93.2%	101%	115%	111%	99.1%	104%	111%	98.7%	98.1%	98.8%	107%	113%	108%	109%	110%	101%	103%	
CC[C@@H]1C(=O)N(C)c2cnc(Nc3ccc(C(=O)NC4CCN(C)CC4)cc3OC)nc2N1C1CCCC1 [BI 2536] (0.1 nM)	105%	103%	104%	102%	103%	105%	103%	94.9%	110%	98.7%	95.7%	97.4%	106%	103%	104%	92.6%	108%	106%	112%
CC[C@@H]1C(=O)N(C)c2cnc(Nc3ccc(C(=O)NC4CCN(C)CC4)cc3OC)nc2N1C1CCCC1 [BI 2536] (1 nM)	101%	98.2%	97.2%	112%	133%	100%	107%	100%	108%	94.6%	97.8%	96.7%	102%	101%	100%	84.6%	92.6%	96.5%	97.2%
O=C(O)CCCCC(CCSCc1ccccc1)SCc1ccccc1 (stereo not drawn) [CPI-613] (1 nM)	101%	102%	96.3%	107%	78.6%	99.2%	101%	105%	97.6%	104%	100%	102%	106%	100%	96.5%	107%	103%	99.1%	114%
O=C(O)CCCCC(CCSCc1ccccc1)SCc1ccccc1 (stereo not drawn) [CPI-613] (10 nM)	105%	89.8%	98.7%	103%	95.5%	97.8%	104%	108%	118%	99%	102%	96.6%	112%	96.2%	105%	105%	101%	105%	109%
C=CC(=O)Nc1cc2c(Nc3ccc(F)c(Cl)c3)ncnc2cc1OCCCN1CCOCC1 [Canertinib] (1 nM)	96.8%	104%	95.2%	103%	104%	103%	105%	95.6%	93.3%	97.3%	98.8%	98.6%	108%	104%	94.5%	108%	106%	105%	103%
C=CC(=O)Nc1cc2c(Nc3ccc(F)c(Cl)c3)ncnc2cc1OCCCN1CCOCC1 [Canertinib] (10 nM)	106%	95.6%	91.7%	102%	84.3%	99.6%	107%	99.8%	93.8%	89.5%	82.4%	103%	76.6%	106%	99.2%	99.1%	96.3%	103%	91%
O=C(O)C1(C(=O)O)CCC1.[NH2-].[NH2-].[Pt+2] [Carboplatin] (1 nM)	98.9%	99%	97%	100%	115%	96.6%	100%	103%	103%	101%	97.5%	101%	108%	104%	101%	109%	95.2%	98.8%	89.3%
O=C(O)C1(C(=O)O)CCC1.[NH2-].[NH2-].[Pt+2] [Carboplatin] (10 nM)	103%	102%	99.3%	105%	57.9%	99.5%	95.9%	104%	99.2%	96.6%	96.9%	101%	103%	97%	95.4%	99.7%	96.8%	98.4%	
COc1cc2c(Oc3ccc4[nH]c(C)cc4c3F)ncnc2cc1OCCCN1CCCC1 [Cediranib] (0.1 nM)	113%	101%	101%	109%	113%	101%	99.9%	98.1%	93.4%	104%	103%	94.8%	100%	109%	93.3%	107%	110%	103%	106%
COc1cc2c(Oc3ccc4[nH]c(C)cc4c3F)ncnc2cc1OCCCN1CCCC1 [Cediranib] (1 nM)	104%	101%	105%	106%	131%	109%	102%	106%	93.9%	94.7%	98.6%	97%	104%	101%	97.8%	99.7%	113%	108%	99.8%
Cc1ccc(-c2cc(C(F)(F)F)nn2-c2ccc(S(N)(=O)=O)cc2)cc1 [Celecoxib] (10 nM)	27.3%	102%	101%	102%	106%	103%	101%	104%	105%	98.3%	98.1%	107%	105%	100%	105%	115%	100%	102%	
Nc1ncn([C@H]2C[C@H](O)[C@@H](CO)O2)c(=O)n1 [Decitabine] (10 nM)	104%	93%	103%	95.4%	124%	90%	105%	103%	102%	94.6%	98.8%	96.3%	98.5%	102%	97.3%	97.7%	96%	103%	
Nc1ccccc1NC(=O)c1ccc(CNC(=O)OCc2cccnc2)cc1 [Entinostat] (10 nM)	100%	96.8%	94.2%	104%	94%	107%	101%	101%	95.7%	99.5%	97.5%	102%	109%	98.6%	102%	94.6%	98.4%	103%	
Nc1nc(F)nc2c1ncn2[C@@H]1O[C@H](CO)[C@@H](O)[C@@H]1O [Fludarabine] (10 nM)	108%	101%	101%	108%	120%	98.8%	107%	108%	98.5%	107%	97%	105%	116%	109%	109%	103%	105%	110%	
N#Cc1ccc(C(c2ccc(C#N)cc2)n2cncn2)cc1 [Letrozole] (10 nM)	103%	95.3%	95.7%	99.3%	126%	99.9%	98.2%	97.4%	98.2%	97.6%	97.8%	103%	108%	101%	97.1%	102%	99.6%	103%	
Cc1cnc(NC(=O)Nc2cc(Br)c(C)cc2OC[C@@H]2CNCCO2)cn1 [Rabusertib] (1 nM)	103%	94.6%	98.1%	118%	115%	103%	108%	104%	101%	106%	90.4%	102%	105%	107%	104%	109%	94.9%	113%	
COc1cc([C@@H]2c3cc4c(cc3[C@@H](O[C@@H]3O[C@@H]5CO[C@@H](c6cccs6)O[C@H]5[C@H](O)[C@H]3O)[C@H]3COC(=O)[C@H]23)OCO4)cc(OC)c1O [Teniposide] (10 nM)	96.8%	91.9%	105%	93.2%	112%	100%	78.2%	96.9%	103%	101%	95.3%	100%	98.8%	99.4%	89.7%	101%	98.3%	98%	
Oc1ncc(N(CCCl)CCCl)c(O)n1 [Uracil mustard] (10 nM)	103%	97.2%	102%	107%	80.1%	95.2%	97.7%	105%	87%	99.7%	95.1%	107%	106%	105%	105%	88.8%	90.3%	103%	
CCCCC(=O)OCC(=O)[C@]1(O)Cc2c(O)c3c(c(O)c2[C@@H](O[C@H]2C[C@H](NC(=O)C(F)(F)F)[C@H](O)[C@H](C)O2)C1)C(=O)c1c(OC)cccc1C3=O [Valrubicin] (5 nM)	97.6%	91.1%	94.6%	105%	60.1%	95.6%	101%	102%	96.5%	102%	95.5%	102%	106%	97%	101%	103%	93.1%	105%	
